What is called IC50 is the concentration that gives 50% inhibition.

Sequence of Protein Tat (Human immunodeficiency virus type 1 group M subtype B (isolate HXB2)) (P04608 whole entry, looked up): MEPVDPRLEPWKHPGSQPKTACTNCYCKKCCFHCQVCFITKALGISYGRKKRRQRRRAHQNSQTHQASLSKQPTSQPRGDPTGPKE

The experiment concerns the target Protein Tat (Human immunodeficiency virus type 1 group M subtype B (isolate HXB2)) (UniProt P04608). In words: HIV-1 Tat–TAR interaction blockers – biochemical, fluorescence polarization, FAM-labeled TAR RNA, counter-screen for Vif-APOBEC3G degradation inhibitor project, dose response (AID 1117361). The settings on record: Tat-TAR RNA binding. For orientation: Polarisation of emitted light reports the rotation of a fluorescent probe.
With `Clc1ccc(OCc2nn3c(-c4ccco4)nnc3s2)c(Cl)c1`, the IC50 is 51.5 µM.

Take `CC(=O)Nc1ccc(S(=O)(=O)Nc2nc3ccccc3nc2Nc2ccc(N)cc2)cc1`: the IC50 is 43.3 µM.

Consider `CCOc1cccc(=O)c2c(C)n(CC(=O)c3ccccc3)c(C)c12`, for which the IC50 is 18.6 µM.

On to `O=C(CCCN1C(=O)/C(=C\c2ccco2)SC1=S)Nc1cccc2ccccc12`, for which the IC50 is 7.92 µM.

In the case of `COC(=O)c1ccccc1NC(=O)C1CCCC1`, the IC50 is 4.92 µM.

In the case of `CCN1CCN(c2cc(N3CCN(C(=O)c4ccco4)CC3)c3c4c(onc24)-c2ccccc2C3=O)CC1`, the IC50 was 5.77 µM.

On to `O=c1cc2c(=O)oc3cc(O)c(O)oc3c2c(O)c1O`, for which the concentration for half-maximal inhibition (IC50) is 12.3 µM.

For `CNc1c(C(=O)O)ccc2c1C(=O)c1ccccc1C2=O`, the IC50 is 21.9 µM.

In the case of `Cc1onc(-c2ccccc2Cl)c1C(=O)NCc1ccco1`, the half-inhibitory concentration (IC50) is 6.65 µM.

Consider `CN(C)N1C(N)=C(C#N)C(c2cccnc2)C2=C1CCCC2=O` (stereo not given), for which the IC50 is 15.3 µM.

As for `COC(=O)\C(C(C)=O)=C(/C=C/C=C/C=C/N(C)C)N(C)C`, the IC50 was 56.3 µM.

Regarding `Cc1cccc(-n2nc3c(c2NC(=O)c2ccc(Br)o2)CSC3)c1`, the IC50 is 85.9 µM.

As for `O=C1NC(=S)S/C1=C\C=C\c1ccc([N+](=O)[O-])o1`, the IC50 was 2.76 µM.

Take `O=S(=O)(c1ccc2nc(-c3ccco3)c(-c3ccco3)nc2c1)N1CCOCC1`: the IC50 was 44.9 µM.

For the molecule `NC(=S)N=Nc1c(O)cc(O)c2[nH]c(=O)ccc12`, the IC50 is 37.2 µM.

For `COc1ccc(/C=C(\NC(=O)c2ccc(OCC(C)C)cc2)C(=O)OCc2ccco2)cc1`, the IC50 was 61.5 µM.

For `O=C1/C(=C/c2ccco2)SC(=S)N1c1cccnc1`, the IC50 was 3.9 µM.

`COc1ccc(NC(=O)CN(C)C(=O)c2cc(-c3ccco3)nc3ccccc23)cc1`: the IC50 is 46.4 µM.

As for `CN(C)C(=O)c1nc2ccc(Cl)cn2c1CN1CCCC(OCc2ccccc2)C1` (stereo not given), the IC50 was 44.6 µM.

As to `CC(C)C1Nc2ccc(C(=O)O)cc2C2C=CCC21` (stereo not given), the IC50 is 4.93 µM.

As for `O=C(O)c1ccc2c(c1)[C@@H]1C=CC[C@@H]1[C@H](c1ccccn1)N2`, the IC50 is 7.1 µM.

For `CNC[C@H](O)c1ccc(O)c(O)c1`, the IC50 was 11.8 µM.

`CCOC(=O)C1CCN(C(c2cccs2)c2sc3nc(C)nn3c2O)CC1` (stereo not given): the IC50 is 1.96 µM.

With `NC(=O)c1c(NC(=O)c2ccc(S(=O)(=O)N3CCOCC3)cc2)sc2c1CCCCC2`, the IC50 was 58.3 µM.

Take `CC1(OC(=O)CCc2ccccc2)C(=O)C=C2C=C(c3ccsc3)OC=C2C1=O` (stereo not given): the IC50 was 65.8 µM.

Consider `COc1ccc(/C=N/NC(=O)c2cc(O)c(O)c(O)c2)cc1Cn1cc([N+](=O)[O-])cn1`, for which the IC50 is 46.7 µM.

On to `COc1ccc(NC(=O)c2cccc(S(=O)(=O)Nc3ccc(Br)cc3)c2)cn1`, for which the IC50 is 2.15 µM.

Regarding `Cc1ccc(S(=O)(=O)Cn2nnnc2C(CC(C)C)N2CCN(C)CC2)cc1` (stereo not given), the IC50 is 22.6 µM.

Turning to `O=C(N/N=C/C=C\c1ccco1)c1cccnc1`, the IC50 is 3.91 µM.

In the case of `N#CC1=C(N)C2=C(N3CCCCC3)CCCC2C1(C#N)C#N` (stereo not given), the IC50 was 5.45 µM.

As to `O=C(Cc1ccccc1)NC(Nc1ccccc1)C(Cl)(Cl)Cl` (stereo not given), the IC50 is 87.8 µM.

On to `CCN(CC)C(=O)c1ccc2c(c1)C1C(Cl)C(Sc3ccccc3[N+](=O)[O-])CC1C(C(=O)O)N2` (stereo not given), for which the half-maximal inhibitory concentration (IC50) is 5.54 µM.

Turning to `CC(C)(C)NC(=O)C(c1ccncc1)N(C(=O)CNC(=O)c1ccco1)c1ccc2c(c1)OCO2` (stereo not given), the IC50 is 44.1 µM.

With `Cc1nc2c(=O)[nH]c(=S)[nH]c2[nH]c1=O`, the half-inhibitory concentration (IC50) is 13.2 µM.

As to `Cc1ccc(C(=O)Nc2ccc(O)c(C(=O)O)c2)o1`, the IC50 is 19.4 µM.

For `O=C(O)Cc1cccc(=O)c(O)c1C(=O)O`, the IC50 was 54.7 µM.

Turning to `C=C(C)C(=O)Nc1cccc(C2=NOC3(C2)C[C@@H](C(N)=O)N(C(=O)CCCCC)C3)c1` (stereo not given in full), the IC50 was 5.76 µM.

On to `Cc1cc2ccccc2n1CCNC(=O)C1CCCCC1`, for which the IC50 was 23.5 µM.

Consider `Cc1ccc2cc(CN(Cc3nnnn3Cc3ccco3)CC3CCCO3)c(=O)[nH]c2c1C` (stereo not given), for which the IC50 was 29.4 µM.

Take `CNc1ccccc(C(=O)/C=C/c2ccccc2OC)c1=O`: the half-inhibitory concentration (IC50) was 6.69 µM.

Regarding `CCC(=O)NC1=C(Cl)C(=O)C(NC(=O)CC)=C(Cl)C1=O`, the IC50 was 79.8 µM.

On to `CCOc1cccc(=O)c2c(C)n(-c3ccc(C(=O)O)cc3)c(C)c12`, for which the IC50 is 3.3 µM.

As to `O=C1CCCC(O)=C1N=Nc1cccc(C(=O)O)c1`, the IC50 is 13.7 µM.

In the case of `O=C(c1ccc2nc(-c3ccco3)c(-c3ccco3)nc2c1)N1CCC2(CC1)OCCO2`, the IC50 is 4.26 µM.

In the case of `Cc1ccc(C2C(C#N)=C(N)Oc3c2oc(CO)cc3=O)o1` (stereo not given), the IC50 was 5.77 µM.

`CCN(CC)S(=O)(=O)c1cccc(C(=O)N/N=C/c2ccc(O)c(O)c2O)c1`: the IC50 was 92.7 µM.

For the molecule `CNCc1ccccc1Sc1cc(O)ccc1O`, the IC50 is 17.5 µM.

With `CC1=C(C(=O)Nc2ccccc2F)C(c2ccsc2)C2=C(CC(c3ccccc3)CC2=O)N1` (stereo not given), the IC50 was 4.06 µM.

Regarding `O=C(Nc1nc(-c2ccco2)c(-c2ccco2)s1)C1CCC1`, the IC50 is 2.65 µM.

In the case of `NC1=NC(=O)/C(=C\c2ccco2)S1`, the IC50 was 6.09 µM.

As to `CCc1cc2cc(C)cc(C)c2nc1SCC(=O)N1CCN(C(=O)c2ccco2)CC1`, the IC50 was 39.3 µM.

As to `O=C1/C(=C\c2ccco2)SC(=S)N1Cc1ccccc1`, the IC50 is 17.5 µM.

With `CCCCn1c(SCC(=O)NCc2ccco2)nc2ccc(N3CCOCC3)cc2c1=O`, the IC50 was 22.8 µM.

As to `CCOC(=O)C1=C(N)n2c(s/c(=C\c3ccco3)c2=O)=C(C(=O)OC(C)C)C1c1ccco1` (stereo not given), the IC50 is 3.45 µM.

As for `CN1CCc2cccc3c2[C@@H]1Cc1ccc(O)c(O)c1-3`, the IC50 was 9.08 µM.

For `Cc1cccc(NC2=Nc3ccccc3N3C2=Nc2c(c(C)nn2-c2ccccc2)C3c2ccc(O)c(O)c2)c1` (stereo not given), the IC50 is 43 µM.

Regarding `O=C1NN(c2ccc(Cl)cc2)C(=O)/C1=C\c1ccc(-c2cccc(C(=O)O)c2)o1`, the IC50 is 23.4 µM.

For the molecule `CC1=NN(C(N)=S)C(=O)C1N=Nc1cccc([N+](=O)[O-])c1` (stereo not given), the IC50 is 99.2 µM.

Turning to `CC(/C=N/n1c(-c2ccncc2)n[nH]c1=S)=C\c1ccco1`, the IC50 was 8.22 µM.

As to `CCCCC(=O)NC(=S)Nc1cc(C(=O)O)ccc1Cl`, the half-inhibitory concentration (IC50) is 51.2 µM.

Regarding `O=C(Nc1ccc2nc(-c3ccco3)c(-c3ccco3)nc2c1)NC1CC1`, the IC50 was 1.83 µM.

In the case of `CCC(c1nnnn1C(C)(C)CC)N(CCCO)Cc1cc2cc(C)cc(C)c2[nH]c1=O` (stereo not given), the IC50 is 1.88 µM.

For the molecule `S=c1[nH]nc(C2CC2)n1Cc1ccco1`, the IC50 was 45.9 µM.

On to `Cc1cnnc2ccc3c(no[n+]3[O-])c12`, for which the IC50 was 36.5 µM.

Consider `COc1ccc(NC(=O)CC2Nc3cccc4cccc(c34)NC2=O)cc1` (stereo not given), for which the concentration for half-maximal inhibition (IC50) is 7.03 µM.

Regarding `C(=C\c1ccco1)/c1ccc2ccccc2n1`, the IC50 is 9.39 µM.

Consider `Cc1ccc(C)n1/N=C1/NC(=O)CS1`, for which the half-inhibitory concentration (IC50) is 0.882 µM.

`CN(C)c1cc(Cl)c2nonc2c1N`: the IC50 is 87.2 µM.

As for `N#C/C(=C/c1ccc(N2CCCCCC2)o1)c1cccc(F)c1`, the IC50 is 98.4 µM.

In the case of `Cn1c(=O)c2c(ncn2CC(=O)N/N=C/C=C/c2ccco2)n(C)c1=O`, the IC50 was 17.1 µM.

As for `CCOC(=O)NC1(NC2CCCCC2)Oc2ccccc2O1`, the half-maximal inhibitory concentration (IC50) was 88.4 µM.

With `Nc1cccc2c(O)cc(S(=O)(=O)O)cc12`, the IC50 was 19.3 µM.

Consider `Cc1c2ccccc2nc2c(F)c(N(C)C)c(F)c(F)c12`, for which the IC50 is 6.51 µM.

Take `Cc1cccc(C)c1NC(=O)COC(=O)c1cc(-c2cccnc2)nc2ccccc12`: the IC50 is 84.6 µM.

As for `O=c1oc2c(O)c(O)cc3c(=O)oc4c(O)c(O)cc1c4c23`, the IC50 is 1.67 µM.

As to `Cc1ccc(SCCN2C(=O)NC(C)(C)C2=O)cc1`, the IC50 is 24.8 µM.

As to `O=C(Nc1ccccc1N1CCCC1)c1ccc(Br)o1`, the IC50 is 59.6 µM.

For the molecule `CC(=O)c1ccc(NC(=O)CSc2nnc(-c3ccco3)c(-c3ccco3)n2)cc1`, the IC50 was 6.61 µM.

For the molecule `COC(=O)c1ccccc1NC(=O)CCS(=O)(=O)c1ccc(Br)cc1`, the IC50 was 18.4 µM.

Regarding `C/C(=N\Nc1ccc(Cl)c(C(=O)O)c1)c1ccc[nH]1`, the IC50 was 21.4 µM.

Regarding `O=C1C2C3CCCC3=C3CCCC3C2C(=O)N1c1ccccc1` (stereo not given), the IC50 is 8.28 µM.

For the molecule `COc1cc(/C=C2/C(=O)c3cccc([N+](=O)[O-])c3C2=O)c(Br)cc1O`, the IC50 was 96.5 µM.

Consider `O=C(O)c1cc(N2N=C(C(F)(F)F)/C(=C/C=C/c3ccco3)C2=O)ccc1Cl`, for which the half-inhibitory concentration (IC50) was 0.616 µM.

With `CC(=O)c1ccc(S(=O)(=O)Nc2cccc(-n3cnnn3)c2)cc1`, the IC50 was 74.2 µM.

With `C=CC1=C(C(=O)O)N2C(=O)C(NC(=O)Cc3ccccc3)C2SC1` (stereo not given), the IC50 was 64.2 µM.

Turning to `Cc1ccc(-c2ccc(CCC(=O)O)n2NC(N)=S)cc1`, the IC50 was 17.8 µM.

With `CS(=O)(=O)c1ccc2c(c1)SC1=NC(=O)/C(=C/c3ccco3)C(=N)N12`, the IC50 is 10.4 µM.

As for `COc1ccccc1N1C(=O)NC(=O)/C(=C/c2ccc([N+](=O)[O-])s2)C1=O`, the 50% inhibitory concentration (IC50) was 17.6 µM.

Consider `COC(=O)Cn1c(CCC(=O)O)ccc1-c1ccccc1`, for which the IC50 was 42.3 µM.

Regarding `Cc1ccc(C(=O)C2=C(O)C(=O)N(c3ncccn3)C2c2ccc(F)cc2)o1` (stereo not given), the IC50 was 82.7 µM.

On to `O=C(O)c1cc2cccc(S(=O)(=O)N3CCOCC3)c2cc1O`, for which the half-maximal inhibitory concentration (IC50) was 80.3 µM.

For `CC[n+]1ccc(C)c2cc(P(=O)(c3ccccc3)c3ccccc3)ccc21`, the IC50 is 72.9 µM.

On to `O=C(O)C(Cc1ccccc1)N1C(=O)/C(=C/C=C/c2ccco2)SC1=S` (stereo not given), for which the IC50 was 1.26 µM.

Take `Cc1cc2c(c(=O)o1)C(c1ccc([N+](=O)[O-])o1)C(C#N)=C(N)O2` (stereo not given): the 50% inhibitory concentration (IC50) is 9.96 µM.

`Cc1cccc(N2C(=O)NC(=O)/C(=C/c3cc4c(cc3[N+](=O)[O-])OCO4)C2=O)c1`: the IC50 is 0.906 µM.

Regarding `Cc1c(O)cc2c(c1O)C(=O)CC(c1ccc(O)cc1)O2` (stereo not given), the IC50 was 37.2 µM.

Take `CC(C)CC(=O)Nc1nnc(-c2ccco2)s1`: the IC50 was 53.8 µM.

Take `O=c1cc(-c2ccc(O)cc2)oc2c(O)c(O)c(O)c(O)c12`: the IC50 was 74.9 µM.

Consider `O=C(N/N=C/c1cn(Cc2cccc(F)c2)c2ccccc12)c1cc(O)cc(O)c1`, for which the IC50 was 15 µM.

Consider `O=C1CC(=O)N(Cc2ccco2)C(=O)N1`, for which the IC50 is 14.6 µM.

The values are drawn from PubChem BioAssay AID1117361 (Southern Research Institute, 2015).
